The numbers were not newly measured in patent publication US8921361B2, “Triazine, pyrimidine and pyridine analogs and their use as therapeutic agents and diagnostic probes” (University of Basel, priority 2008, dated 2014), which cites them from elsewhere.

Structures are written as SMILES.

For the data set, the system named is human cancer xenografts.

For the compound `FC(F)c1nc2ccccc2n1-c1nc(N2CCOCC2)nc(N2CCOCC2)n1` [ZSTK474], where the note is “mouse, in vivo, po”, the “toxicity in xenograft mice” value is given as “without evidence of critical toxicity”. For the same compound, the “antitumor activity against human cancer xenografts in mice” value (orally administered, Yaguchi et al. 2006) is on record as “potent antitumor activity”.
